Holding throughout (type): biochemical
For one assay, the target named is T1, FLT3 WT (Homo sapiens, UniProt P36888).
T1 construct: Recombinant proteins containing the FLT3 and FLT3 (D835Y) domains were purchased from Promega; purchased Promega V4064
T1 sequence (P36888 610-943 limits assumed): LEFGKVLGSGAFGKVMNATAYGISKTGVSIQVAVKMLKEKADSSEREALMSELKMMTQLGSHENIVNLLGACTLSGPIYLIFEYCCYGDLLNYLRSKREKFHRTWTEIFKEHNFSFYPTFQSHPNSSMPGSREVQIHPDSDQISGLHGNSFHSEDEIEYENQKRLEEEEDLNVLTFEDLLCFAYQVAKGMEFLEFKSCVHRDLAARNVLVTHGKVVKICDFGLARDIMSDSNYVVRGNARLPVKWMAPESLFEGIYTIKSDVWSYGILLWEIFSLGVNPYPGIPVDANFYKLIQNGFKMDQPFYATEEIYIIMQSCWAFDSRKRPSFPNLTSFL
The assay is described as follows: ADP-Glo kinase assay, FLT3 WT. To be noted: recombinant FLT3, ADP-Glo, 120 min room temperature; read-out: Enzyme activity (IC50, nM) FLT3 WT. The protocol:
FLT3 activity inhibition was measured by ADP-Glo kinase assay (Promega, cat #V9101). ADP-Glo kinase analysis method is an emission ADP detect method which measures kinase activity by quantification of ADP amount produced during kinase reaction and provides uniform high-throughput screening method.
(§1) Analysis performed in two steps. First, after kinase reaction, ADP-Glo™ reagent of equal volume was added to finish kinase reaction, and then the rest ATP was exhausted. Second, Kinase Detection Reagent was added to convert ADP to ATP and newly synthesized ATP was measured by luciferase/luciferin reaction at the same time. Generated light was measured by using luminometer. The measured luminescence amount can be applied to the ATP→ADP standard conversion curve to confirm the correlation with the ADP concentration.
Recombinant proteins containing the FLT3 and FLT3 (D835Y) domains were purchased from Promega (cat #V4064, cat #V4514), respectively. According to the manufacturer's instructions, optimal enzyme, ATP, and substrate concentration were established using the ADP-Glo™ Kinase Assay (Promega, USA). Kinase reaction buffer 5× (200 mM Tris-HCl, pH 7.5, 100 mM MgCl2, 0.5 mg/ml BSA) was diluted and used, and the diluted compound of the present invention (5×, 1 μl), FLT3 enzyme or FLT3/D835Y enzyme (2.5×, 2 μl) and substrate/ATP mixture (2.5×, 2 μl), were mixed sequentially and reacted at room temperature for 120 minutes. Then, ADP-Glo™ Reagent (5 μl) was added and reacted for 40 min at room temperature. Finally, after adding a reagent for detection (Kinase Detection Reagent, 10 μl), reacting at room temperature for 30 min, and then phosphorylation of substrate peptide was measured by measuring luciferase signal (Integration time 0.5-1 second) using SpectraMax ID5 reader (Molecular Devices LLC., San Jose, CA, USA). IC50 was calculated by nonlinear regression using Prism version 5.01 (GrapghPad).
A general note: In ADP-Glo the light output rises with the ADP produced.

The next assay concerns the target T2, RET WT (Homo sapiens, UniProt P07949).
T2 construct: Recombinant proteins containing RET wt, RET (M918T) and RET (V804L) domains were purchased from Promega; purchased Promega V8061
T2 sequence (P07949 724-1016 limits assumed): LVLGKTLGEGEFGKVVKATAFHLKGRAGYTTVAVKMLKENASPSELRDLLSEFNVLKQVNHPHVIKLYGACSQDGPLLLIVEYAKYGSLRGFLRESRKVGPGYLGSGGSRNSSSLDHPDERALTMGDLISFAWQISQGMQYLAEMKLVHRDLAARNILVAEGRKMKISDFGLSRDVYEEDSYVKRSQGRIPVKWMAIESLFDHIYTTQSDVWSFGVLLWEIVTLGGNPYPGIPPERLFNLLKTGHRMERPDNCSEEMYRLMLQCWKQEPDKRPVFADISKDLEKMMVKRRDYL
Briefly: ADP-Glo kinase assay, RET WT. The note with it: recombinant RET wt, 120 min room temperature, read-out: Enzyme activity (IC50, nM) RET WT. How it is done:
as §1
(§2) Recombinant proteins containing RET wt, RET (M918T) and RET (V804L) domains were purchased from Promega (cat #V8061, cat #VA7274, cat #V4473), respectively. According to the manufacturer's instructions, optimal enzyme, ATP, and substrate concentration were established using ADP-Glo™ Kinase Assay (Promega, USA). […] Then, ADP-Glo™ Reagent (5 μl) was added and reacted at room temperature for further 40 min. Lastly, Kinase Detection Reagent (10 μl) was added and reacted for 30 min more at room temperature, and then phosphorylation of substrate peptide was measured by measuring luciferase signal (Integration time 0.5-1 second) using SpectraMax ID5 reader (Molecular Devices LLC., San Jose, CA, USA). IC50 was calculated by nonlinear regression using Prism version 5.01 (GrapghPad).

The target of a further assay is T3, RET V804L (Homo sapiens, UniProt P07949, V804L).
T3 construct: Recombinant proteins containing RET wt, RET (M918T) and RET (V804L) domains were purchased from Promega; purchased Promega V4473
T3 sequence (P07949 724-1016 V804L limits assumed): T2 sequence (P07949 724-1016 limits assumed) with V81L
The assay is described as follows: ADP-Glo kinase assay, RET V804L. To be noted: recombinant RET (V804L), 120 min room temperature, read-out: Enzyme activity (IC50, nM) RET V804L. How it is done: as §1, §2

A word on the IC50: it is the concentration that inhibits the measured activity by half.

Numbering of substitutions follows the chain as printed.

`O=C1Nc2ccccc2/C1=C1/Nc2ccccc2/C1=N\OCC(=O)N1CC2(CNC2)C1` [Example 15, (2Z,3E)-3-((2-oxo-2-(2,6-diazaspiro[3.3]heptan-2-yl)ethoxy)imino)-[2,3′-biindolinylidene]-2′-one]: the IC50 at FLT3 WT was 3.41 nM; at RET WT, 0.664 nM; on RET V804L, 0.37 nM.

Take `O=C1Nc2ccc(F)cc2/C1=C1/Nc2ccccc2/C1=N\OCC(=O)N1CC2(CNC2)C1` [Example 18, (2Z,3E)-5′-fluoro-3-((2-oxo-2-(2,6-diazaspiro[3.3]heptan-2-yl)ethoxy)imino)-[2,3′-biindolinylidene]-2′-one]: the IC50 at FLT3 WT turned out to be 2.15 nM; on RET WT it was 1.12 nM; on RET V804L it was 0.657 nM.

The record behind these values is patent US20240010635A1, “NOVEL INDIRUBIN DERIVATIVES HAVING HETEROBICYCLIC MOIETIES AND THE USE THEREOF” (priority 2022, published 2024).
